Data from ChEMBL document CHEMBL3774322, “New orally active diphenylmethyl-based ester analogues of dihydroartemisinin: Synthesis and antimalarial assessment against multidrug-resistant Plasmodium yoelii nigeriensis in mice” (Bioorg Med Chem Lett, 2016).
Active and inactive are the calls of the source. The rule behind the calls is not given here.

Tested on: Plasmodium yoelii nigeriensis
Assay: (§1) Antimalarial activity against blood stage multidrug-resistant Plasmodium yoelii nigeriensis infected swiss mouse assessed as protection against bacterial infection at 6 mg/kg, po administered once daily for 3 days measured after 28 days by microscopy
Assay type: functional, organism-based
Conditions: not given
For `C[C@H]1[C@H](OC(=O)CC(c2ccc(F)cc2)c2ccc(F)cc2)O[C@@H]2O[C@@]3(C)CC[C@H]4[C@H](C)CC[C@@H]1[C@@]24OO3`, the Activity was “inactive”. With `C[C@H]1[C@H](OC(=O)C(c2ccccc2)c2ccccc2)O[C@@H]2O[C@@]3(C)CC[C@H]4[C@H](C)CC[C@@H]1[C@@]24OO3` the Activity was “inactive”. In the case of `COc1ccc(C(CC(=O)O[C@@H]2O[C@@H]3O[C@@]4(C)CC[C@H]5[C@H](C)CC[C@@H]([C@H]2C)[C@@]35OO4)c2ccc(OC)cc2)cc1`, the Activity is reported as “inactive”.

Tested on: Plasmodium yoelii nigeriensis
Assay: as §1, with “Plasmodium yoelii nigeriensis” for “bacterial”, “12” for “6”, “on day 4 and subsequently twice a week up to” for “after”
Assay type: functional
Conditions: not given
For `C[C@H]1[C@H](OC(=O)CC(c2ccc(Cl)cc2)c2ccc(Cl)cc2)O[C@@H]2O[C@@]3(C)CC[C@H]4[C@H](C)CC[C@@H]1[C@@]24OO3`, the Activity was “inactive”. For `C[C@H]1[C@H](OC(=O)CC(c2ccc(F)cc2)c2ccc(F)cc2)O[C@@H]2O[C@@]3(C)CC[C@H]4[C@H](C)CC[C@@H]1[C@@]24OO3`, the Activity was 80%. `C[C@H]1[C@H](OC(=O)C(c2ccccc2)c2ccccc2)O[C@@H]2O[C@@]3(C)CC[C@H]4[C@H](C)CC[C@@H]1[C@@]24OO3` showed an Activity of 100%. With `C[C@H]1[C@H](OC(=O)CC(c2ccccc2)c2ccccc2)O[C@@H]2O[C@@]3(C)CC[C@H]4[C@H](C)CC[C@@H]1[C@@]24OO3` the Activity was “inactive”. `COc1ccc(C(CC(=O)O[C@@H]2O[C@@H]3O[C@@]4(C)CC[C@H]5[C@H](C)CC[C@@H]([C@H]2C)[C@@]35OO4)c2ccc(OC)cc2)cc1` showed an Activity of 80%.

Tested on: Plasmodium yoelii nigeriensis
Assay: Antimalarial activity against blood stage multidrug-resistant Plasmodium yoelii nigeriensis infected swiss mouse assessed as suppression of parasitaemia at 6 mg/kg, po administered once daily for 3 days measured on day 4 by microscopic analysis relative to control
Assay type: functional
Conditions: not given
`C[C@H]1[C@H](OC(=O)CC(c2ccc(F)cc2)c2ccc(F)cc2)O[C@@H]2O[C@@]3(C)CC[C@H]4[C@H](C)CC[C@@H]1[C@@]24OO3` showed an inhibition in vivo at 6 mg/kg of 100%. Work on `C[C@H]1[C@H](OC(=O)C(c2ccccc2)c2ccccc2)O[C@@H]2O[C@@]3(C)CC[C@H]4[C@H](C)CC[C@@H]1[C@@]24OO3` yielded an inhibition in vivo at 6 mg/kg of 100%. `COc1ccc(C(CC(=O)O[C@@H]2O[C@@H]3O[C@@]4(C)CC[C@H]5[C@H](C)CC[C@@H]([C@H]2C)[C@@]35OO4)c2ccc(OC)cc2)cc1` showed an inhibition in vivo at 6 mg/kg of 100%.

Tested on: Plasmodium yoelii nigeriensis
Assay: Antimalarial activity against blood stage multidrug-resistant Plasmodium yoelii nigeriensis infected swiss mouse assessed as suppression of parasitaemia at 48 mg/kg, po administered once daily for 3 days measured on day 4 by microscopic analysis relative to control
Assay type: functional
Conditions: not given
`C[C@H]1[C@H](OC(=O)CC(c2ccc(Cl)cc2)c2ccc(Cl)cc2)O[C@@H]2O[C@@]3(C)CC[C@H]4[C@H](C)CC[C@@H]1[C@@]24OO3` showed an inhibition in vivo at 48 mg/kg of 100%. `C[C@H]1[C@H](OC(=O)CC(c2ccc(F)cc2)c2ccc(F)cc2)O[C@@H]2O[C@@]3(C)CC[C@H]4[C@H](C)CC[C@@H]1[C@@]24OO3` showed an inhibition in vivo at 48 mg/kg of 100%. Compound `C[C@H]1[C@H](OC(=O)C(c2ccccc2)c2ccccc2)O[C@@H]2O[C@@]3(C)CC[C@H]4[C@H](C)CC[C@@H]1[C@@]24OO3` has an inhibition in vivo at 48 mg/kg of 100%. For `C[C@H]1[C@H](OC(=O)CC(c2ccccc2)c2ccccc2)O[C@@H]2O[C@@]3(C)CC[C@H]4[C@H](C)CC[C@@H]1[C@@]24OO3`, the inhibition in vivo at 48 mg/kg was 100%. Compound `COc1ccc(C(CC(=O)O[C@@H]2O[C@@H]3O[C@@]4(C)CC[C@H]5[C@H](C)CC[C@@H]([C@H]2C)[C@@]35OO4)c2ccc(OC)cc2)cc1` has an inhibition in vivo at 48 mg/kg of 100%.

Tested on: Plasmodium yoelii nigeriensis
Assay: Antimalarial activity against blood stage multidrug-resistant Plasmodium yoelii nigeriensis infected swiss mouse assessed as protection […] at 24 mg/kg, po administered once daily for 3 days measured after 28 days by microscopy
Assay type: functional, organism-based
Conditions: not given
With `C[C@H]1[C@H](OC(=O)CC(c2ccc(Cl)cc2)c2ccc(Cl)cc2)O[C@@H]2O[C@@]3(C)CC[C@H]4[C@H](C)CC[C@@H]1[C@@]24OO3` the Activity was “inactive”. In the case of `C[C@H]1[C@H](OC(=O)CC(c2ccccc2)c2ccccc2)O[C@@H]2O[C@@]3(C)CC[C@H]4[C@H](C)CC[C@@H]1[C@@]24OO3`, the Activity is reported as “inactive”.

Tested on: Plasmodium yoelii nigeriensis
Assay: Antimalarial activity against blood stage multidrug-resistant Plasmodium yoelii nigeriensis infected swiss mouse assessed as protection […] at 24 mg/kg, po administered once daily for 3 days measured on day 4 and subsequently twice a week up to 28 days by microscopy
Assay type: functional
Conditions: not given
For `C[C@H]1[C@H](OC(=O)CC(c2ccc(Cl)cc2)c2ccc(Cl)cc2)O[C@@H]2O[C@@]3(C)CC[C@H]4[C@H](C)CC[C@@H]1[C@@]24OO3`, the Activity was 100%. In the case of `C[C@H]1[C@H](OC(=O)CC(c2ccc(F)cc2)c2ccc(F)cc2)O[C@@H]2O[C@@]3(C)CC[C@H]4[C@H](C)CC[C@@H]1[C@@]24OO3`, the Activity is reported as 100%. Work on `C[C@H]1[C@H](OC(=O)C(c2ccccc2)c2ccccc2)O[C@@H]2O[C@@]3(C)CC[C@H]4[C@H](C)CC[C@@H]1[C@@]24OO3` yielded an Activity of 100%. With `C[C@H]1[C@H](OC(=O)CC(c2ccccc2)c2ccccc2)O[C@@H]2O[C@@]3(C)CC[C@H]4[C@H](C)CC[C@@H]1[C@@]24OO3` the Activity was 100%. Work on `COc1ccc(C(CC(=O)O[C@@H]2O[C@@H]3O[C@@]4(C)CC[C@H]5[C@H](C)CC[C@@H]([C@H]2C)[C@@]35OO4)c2ccc(OC)cc2)cc1` yielded an Activity of 100%.

Tested on: Plasmodium yoelii nigeriensis
Assay: Antimalarial activity against blood stage multidrug-resistant Plasmodium yoelii nigeriensis infected swiss mouse assessed as suppression of parasitaemia at 24 mg/kg, po administered once daily for 3 days measured on day 4 by microscopic analysis relative to control
Assay type: functional
Conditions: not given
With `C[C@H]1[C@H](OC(=O)CC(c2ccc(Cl)cc2)c2ccc(Cl)cc2)O[C@@H]2O[C@@]3(C)CC[C@H]4[C@H](C)CC[C@@H]1[C@@]24OO3` the inhibition in vivo at 24 mg/kg was 100%. With `C[C@H]1[C@H](OC(=O)CC(c2ccc(F)cc2)c2ccc(F)cc2)O[C@@H]2O[C@@]3(C)CC[C@H]4[C@H](C)CC[C@@H]1[C@@]24OO3` the inhibition in vivo at 24 mg/kg was 100%. `C[C@H]1[C@H](OC(=O)C(c2ccccc2)c2ccccc2)O[C@@H]2O[C@@]3(C)CC[C@H]4[C@H](C)CC[C@@H]1[C@@]24OO3` showed an inhibition in vivo at 24 mg/kg of 100%. Compound `C[C@H]1[C@H](OC(=O)CC(c2ccccc2)c2ccccc2)O[C@@H]2O[C@@]3(C)CC[C@H]4[C@H](C)CC[C@@H]1[C@@]24OO3` has an inhibition in vivo at 24 mg/kg of 100%. Compound `COc1ccc(C(CC(=O)O[C@@H]2O[C@@H]3O[C@@]4(C)CC[C@H]5[C@H](C)CC[C@@H]([C@H]2C)[C@@]35OO4)c2ccc(OC)cc2)cc1` has an inhibition in vivo at 24 mg/kg of 100%.

Tested on: Plasmodium yoelii nigeriensis
Assay: Antimalarial activity against blood stage multidrug-resistant Plasmodium yoelii nigeriensis infected swiss mouse assessed as suppression of parasitaemia at 12 mg/kg, po administered once daily for 3 days measured on day 4 by microscopic analysis relative to control
Assay type: functional
Conditions: not given
`C[C@H]1[C@H](OC(=O)CC(c2ccc(Cl)cc2)c2ccc(Cl)cc2)O[C@@H]2O[C@@]3(C)CC[C@H]4[C@H](C)CC[C@@H]1[C@@]24OO3` gave an inhibition in vivo at 12 mg/kg of 96%. For `C[C@H]1[C@H](OC(=O)CC(c2ccc(F)cc2)c2ccc(F)cc2)O[C@@H]2O[C@@]3(C)CC[C@H]4[C@H](C)CC[C@@H]1[C@@]24OO3`, the inhibition in vivo at 12 mg/kg was 100%. For `C[C@H]1[C@H](OC(=O)C(c2ccccc2)c2ccccc2)O[C@@H]2O[C@@]3(C)CC[C@H]4[C@H](C)CC[C@@H]1[C@@]24OO3`, the inhibition in vivo at 12 mg/kg was 100%. `C[C@H]1[C@H](OC(=O)CC(c2ccccc2)c2ccccc2)O[C@@H]2O[C@@]3(C)CC[C@H]4[C@H](C)CC[C@@H]1[C@@]24OO3` gave an inhibition in vivo at 12 mg/kg of 100%. Work on `COc1ccc(C(CC(=O)O[C@@H]2O[C@@H]3O[C@@]4(C)CC[C@H]5[C@H](C)CC[C@@H]([C@H]2C)[C@@]35OO4)c2ccc(OC)cc2)cc1` yielded an inhibition in vivo at 12 mg/kg of 100%.

Tested on: Plasmodium yoelii nigeriensis
Assay: Antimalarial activity against blood stage multidrug-resistant Plasmodium yoelii nigeriensis infected swiss mouse assessed as protection against Plasmodium yoelii nigeriensis infection at 48 mg/kg, po administered once daily for 3 days measured on day 4 and subsequently twice a week up to 28 days by microscopy
Assay type: functional
Conditions: not given
For `C[C@H]1[C@H](OC(=O)CC(c2ccc(Cl)cc2)c2ccc(Cl)cc2)O[C@@H]2O[C@@]3(C)CC[C@H]4[C@H](C)CC[C@@H]1[C@@]24OO3`, the Activity was 100%. With `C[C@H]1[C@H](OC(=O)CC(c2ccc(F)cc2)c2ccc(F)cc2)O[C@@H]2O[C@@]3(C)CC[C@H]4[C@H](C)CC[C@@H]1[C@@]24OO3` the Activity was 100%. For `C[C@H]1[C@H](OC(=O)C(c2ccccc2)c2ccccc2)O[C@@H]2O[C@@]3(C)CC[C@H]4[C@H](C)CC[C@@H]1[C@@]24OO3`, the Activity was 100%. In the case of `C[C@H]1[C@H](OC(=O)CC(c2ccccc2)c2ccccc2)O[C@@H]2O[C@@]3(C)CC[C@H]4[C@H](C)CC[C@@H]1[C@@]24OO3`, the Activity is reported as 100%. Compound `COc1ccc(C(CC(=O)O[C@@H]2O[C@@H]3O[C@@]4(C)CC[C@H]5[C@H](C)CC[C@@H]([C@H]2C)[C@@]35OO4)c2ccc(OC)cc2)cc1` has an Activity of 100%.

Tested on: Plasmodium yoelii nigeriensis
Assay: Antimalarial activity against blood stage multidrug-resistant Plasmodium yoelii nigeriensis infected swiss mouse assessed as protection against […] infection at 6 mg/kg, po administered once daily for 3 days measured on day 4 and subsequently twice a week up to 28 days by microscopy
Assay type: functional, organism-based
Conditions: not given
For `C[C@H]1[C@H](OC(=O)CC(c2ccc(F)cc2)c2ccc(F)cc2)O[C@@H]2O[C@@]3(C)CC[C@H]4[C@H](C)CC[C@@H]1[C@@]24OO3`, the Activity was “inactive”. With `C[C@H]1[C@H](OC(=O)C(c2ccccc2)c2ccccc2)O[C@@H]2O[C@@]3(C)CC[C@H]4[C@H](C)CC[C@@H]1[C@@]24OO3` the Activity was “inactive”. For `COc1ccc(C(CC(=O)O[C@@H]2O[C@@H]3O[C@@]4(C)CC[C@H]5[C@H](C)CC[C@@H]([C@H]2C)[C@@]35OO4)c2ccc(OC)cc2)cc1`, the Activity was “inactive”.

Tested on: Plasmodium yoelii nigeriensis
Assay: Antimalarial activity against blood stage multidrug-resistant Plasmodium yoelii nigeriensis infected swiss mouse assessed as protection against Plasmodium yoelii nigeriensis infection at 12 mg/kg, po administered once daily for 3 days measured after 28 days by microscopy
Assay type: functional, organism-based
Conditions: not given
In the case of `C[C@H]1[C@H](OC(=O)CC(c2ccc(Cl)cc2)c2ccc(Cl)cc2)O[C@@H]2O[C@@]3(C)CC[C@H]4[C@H](C)CC[C@@H]1[C@@]24OO3`, the Activity is reported as “inactive”. With `C[C@H]1[C@H](OC(=O)CC(c2ccccc2)c2ccccc2)O[C@@H]2O[C@@]3(C)CC[C@H]4[C@H](C)CC[C@@H]1[C@@]24OO3` the Activity was “inactive”.

Tested on: not listed separately
Assay: Lipophilicity, logP of compound
Assay type: physicochemical
Conditions: octanol/water
In the case of `C[C@H]1[C@H](OC(=O)CC(c2ccc(Cl)cc2)c2ccc(Cl)cc2)O[C@@H]2O[C@@]3(C)CC[C@H]4[C@H](C)CC[C@@H]1[C@@]24OO3`, the logP is reported as 8.27. `C[C@H]1[C@H](OC(=O)CC(c2ccc(F)cc2)c2ccc(F)cc2)O[C@@H]2O[C@@]3(C)CC[C@H]4[C@H](C)CC[C@@H]1[C@@]24OO3` showed a logP of 7.47. `C[C@H]1[C@H](OC(=O)C(c2ccccc2)c2ccccc2)O[C@@H]2O[C@@]3(C)CC[C@H]4[C@H](C)CC[C@@H]1[C@@]24OO3` gave a logP of 6.97. For `C[C@H]1[C@H](OC(=O)CC(c2ccccc2)c2ccccc2)O[C@@H]2O[C@@]3(C)CC[C@H]4[C@H](C)CC[C@@H]1[C@@]24OO3`, the logP was 7.15. Compound `COc1ccc(C(CC(=O)O[C@@H]2O[C@@H]3O[C@@]4(C)CC[C@H]5[C@H](C)CC[C@@H]([C@H]2C)[C@@]35OO4)c2ccc(OC)cc2)cc1` has a logP of 6.9.
